According to patent US20250073340A1, “SPIROCYCLIC MDM2 MODULATOR AND USES THEREOF” (Newave Pharmaceutical Inc., priority 2021, published 2025):

Experiments:
MDM2 = MDM2 (Homo sapiens (Human), UniProt Q00987); assay: In vitro MDM2 HTRF assay (inhibition of p53-MDM2 interaction); format: binding; settings: GST-MDM2 / biotinylated p53 peptide
[1] = test system: BCL-2-dependent acute lymphoblastic leukemia (ALL) cell line RS4;11 overexpressing Bcl-2 G101V; assay: cells; format: cell-based; settings: Homo sapiens, RS4-11; about 72 hours, ATPlite luminescence; read-out: RS4;11-G101V IC50
Protocol: Biological Example 2: In vitro Anti-proliferation Assay in BCL-2-dependent acute lymphoblastic leukemia (ALL) cell line RS4; 11 overexpressing Bcl-2 G101V
Cell antiproliferation was assayed by PerkinElmer ATPlite™ Luminescence Assay System. Briefly, the various test cancer cell lines were plated at a density of about 1×10^4 cells per well in Costar 96-well plates, and were incubated with different concentrations of compounds for about 72 hours in medium supplemented with 5% FBS or 10% normal human serum (NHS). One lyophilized substrate solution vial was then reconstituted by adding 5 mL of substrate buffer solution, and was agitated gently until the solution was homogeneous. About 50 μL of mammalian cell lysis solution was added to 100 μL of cell suspension per well of a microplate, and the plate was shaken for about five minutes in an orbital shaker at −700 rpm. This procedure was used to lyse the cells and to stabilize the ATP. Next, 50 μL substrate solution was added to the wells and microplate was shaken for five minutes in an orbital shaker at −700 rpm. Finally, the luminescence was measured by a PerkinElmer TopCount® Microplate Scintillation Counter. Such assays, carried out with a range of doses of test compounds, allowed the determination of the cellular anti-antiproliferative IC50 of the compounds of the present invention.

Chain of MDM2 (Q00987 whole entry): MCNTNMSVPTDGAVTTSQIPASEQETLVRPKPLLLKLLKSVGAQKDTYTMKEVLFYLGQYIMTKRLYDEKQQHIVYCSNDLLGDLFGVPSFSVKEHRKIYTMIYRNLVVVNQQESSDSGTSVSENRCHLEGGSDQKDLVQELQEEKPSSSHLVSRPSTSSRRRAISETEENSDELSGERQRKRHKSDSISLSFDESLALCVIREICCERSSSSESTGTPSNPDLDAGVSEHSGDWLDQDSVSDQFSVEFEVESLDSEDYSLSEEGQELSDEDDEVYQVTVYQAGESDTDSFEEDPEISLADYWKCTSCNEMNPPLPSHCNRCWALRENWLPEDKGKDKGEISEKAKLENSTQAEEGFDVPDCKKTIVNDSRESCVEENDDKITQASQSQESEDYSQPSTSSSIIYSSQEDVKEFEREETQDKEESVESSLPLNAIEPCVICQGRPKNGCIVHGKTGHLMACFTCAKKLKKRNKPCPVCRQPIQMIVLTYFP

Row | SMILES | IC50 (MDM2) | IC50 [1]
1 | COc1cc(C(=O)N2CCCC[C@H]2CCC#Cc2cccc3c2CN([C@@H]2CCC(=O)NC2=O)C3=O)ccc1NC(=O)[C@@H]1N[C@@H](CC(C)(C)C)[C@@]2(CNc3cc(Cl)ccc32)[C@H]1c1cccc(Cl)c1F [Example 38, (2′S,3S,4′S,5′R)-6-chloro-4′-(3-chloro-2-fluorophenyl)-2′-(2,2-dimethylpropyl)-N-{4-[(2S)-2-(4-{2-[(3R)-2,6-dioxopiperidin-3-yl]-1-oxo-3H-isoindol-4-yl}but-3-yn-1-yl)piperidine-1-carbonyl]-2-methoxyphenyl}-1,2-dihydrospiro[indole-3,3′-pyrrolidine]-5′-carboxamide] | 3.82 nM | 67.9 nM
2 | COc1cc(C(=O)NCCCC#Cc2cccc3c2CN(C2CCC(=O)NC2=O)C3=O)ccc1NC(=O)[C@@H]1N[C@@H](CC(C)(C)C)[C@@]2(CNc3cc(Cl)ccc32)[C@H]1c1cccc(Cl)c1F (stereo partly drawn) [Example 16, (2′S,3S,4′S,5′R)-6-chloro-4′-(3-chloro-2-fluorophenyl)-N-(4-((5-(2-(2,6-dioxopiperidin-3-yl)-1-oxoisoindolin-4-yl)pent-4-yn-1-yl)carbamoyl)-2-methoxyphenyl)-2′-neopentylspiro[indoline-3,3′-pyrrolidine]-5′-carboxamide] | 1.54 nM | 10.1 nM
3 | COc1cc(N2CCC([C@H]3C[C@@H]3C#Cc3cccc4c3CN(C3CCC(=O)NC3=O)C4=O)CC2)ccc1NC(=O)[C@@H]1N[C@@H](CC(C)(C)C)[C@@]2(CNc3cc(Cl)ccc32)[C@H]1c1cccc(Cl)c1F (stereo partly drawn) [Example 27, (2′S,3S,4′S,5′R)-6-chloro-4′-(3-chloro-2-fluorophenyl)-2′-(2,2-dimethylpropyl)-N-(4-{4-[(1R,2S)-2-{2-[2-(2,6-dioxopiperidin-3-yl)-1-oxo-3H-isoindol-4-yl]ethynyl}cyclopropyl]piperidin-1-yl}-2-methoxyphenyl)-1,2-dihydrospiro[indole-3,3′-pyrrolidine]-5′-carboxamide] | 16.5 nM | > 1000 nM
4 | COc1cc(C(N)=O)ccc1NC(=O)[C@@H]1N[C@@H](CC(C)(C)C)[C@@]2(CNc3cc(C(F)(F)F)ncc32)[C@H]1c1cccc(Cl)c1F [Example 11, (2S,3S,4S,5R)—N-(4-carbamoyl-2-methoxyphenyl)-4-(3-chloro-2-fluorophenyl)-2-(2,2-dimethylpropyl)-6′-(trifluoromethyl)-1′,2′-dihydrospiro[pyrrolidine-3,3′-pyrrolo[3,2-c]pyridine]-5-carboxamide] | 0.18 nM | 44.7 nM
5 | COc1cc(C(=O)N[C@@H]2CCCN(CC#Cc3cccc4c3CN(C3CCC(=O)NC3=O)C4=O)C2)ccc1NC(=O)[C@@H]1N[C@@H](CC(C)(C)C)[C@@]2(CNc3cc(Cl)ccc32)[C@H]1c1cccc(Cl)c1F (stereo partly drawn) [Example 50, (2′S,3S,4′S,5′R)-6-chloro-4′-(3-chloro-2-fluorophenyl)-2′-(2,2-dimethylpropyl)-N-(4-{[(3R)-1-{3-[2-(2,6-dioxopiperidin-3-yl)-1-oxo-3H-isoindol-4-yl]prop-2-yn-1-yl}piperidin-3-yl]carbamoyl}-2-methoxyphenyl)-1,2-dihydrospiro[indole-3,3′-pyrrolidine]-5′-carboxamide] | 1.59 nM | 23.5 nM
6 | COc1cc(N2CCC[C@H](C#Cc3cccc4c3CN([C@@H]3CCC(=O)NC3=O)C4=O)C2)ccc1NC(=O)[C@@H]1N[C@@H](CC(C)(C)C)[C@@]2(CNc3cc(Cl)ccc32)[C@H]1c1cccc(Cl)c1F [Example 29, (2′S,3S,4′S,5′R)-6-chloro-4′-(3-chloro-2-fluorophenyl)-N-(4-((R)-3-((2-((R)-2,6-dioxopiperidin-3-yl)-1-oxoisoindolin-4-yl)ethynyl)piperidin-1-yl)-2-methoxyphenyl)-2′-neopentylspiro[indoline-3,3′-pyrrolidine]-5′-carboxamide] | 12 nM | –
7 | COc1cc(C(N)=O)ccc1NC(=O)[C@H]1N[C@H](CC(C)(C)C)[C@]2(CNc3cc(C(F)(F)F)ncc32)[C@@H]1c1cccc(Cl)c1F [Example 12, (2R,3R,4R,5S)—N-(4-carbamoyl-2-methoxyphenyl)-4-(3-chloro-2-fluorophenyl)-2-(2,2-dimethylpropyl)-6′-(trifluoromethyl)-1′,2′-dihydrospiro[pyrrolidine-3,3′-pyrrolo[3,2-c]pyridine]-5-carboxamide] | 103 nM | –
8 | COc1cc(C(N)=O)ccc1NC(=O)[C@H]1N[C@H](CC(C)(C)C)[C@]2(CNc3cc(Cl)ncc32)[C@@H]1c1cccc(Cl)c1F [Example 10, (2R,3R,4R,5S)—N-(4-carbamoyl-2-methoxyphenyl)-6′-chloro-4-(3-chloro-2-fluorophenyl)-2-(2,2-dimethylpropyl)-1′,2′-dihydrospiro[pyrrolidine-3,3′-pyrrolo[3,2-c]pyridine]-5-carboxamide] | 276 nM | –
9 | COc1cc(N2CCC[C@@H](C#Cc3cccc4c3CN([C@@H]3CCC(=O)NC3=O)C4=O)C2)ccc1NC(=O)[C@@H]1N[C@@H](CC(C)(C)C)[C@@]2(CNc3cc(Cl)ccc32)[C@H]1c1cccc(Cl)c1F [Example 31, (2′S,3S,4′S,5′R)-6-chloro-4′-(3-chloro-2-fluorophenyl)-N-(4-((S)-3-((2-((R)-2,6-dioxopiperidin-3-yl)-1-oxoisoindolin-4-yl)ethynyl)piperidin-1-yl)-2-methoxyphenyl)-2′-neopentylspiro[indoline-3,3′-pyrrolidine]-5′-carboxamide] | 6.1 nM | –

Further compounds by falling IC50 (MDM2), results first:

Row | IC50 (MDM2) | IC50 [1] | SMILES
10 | 4.67 nM | 28.3 nM | COc1cc(C(=O)N2CCC3(CC2)C[C@H]3C#Cc2cccc3c2CN(C2CCC(=O)NC2=O)C3=O)ccc1NC(=O)[C@@H]1N[C@@H](CC(C)(C)C)[C@@]2(CNc3cc(Cl)ccc32)[C@H]1c1cccc(Cl)c1F (stereo partly drawn) [Example 43, (2′S,3S,4′S,5′R)-6-chloro-4′-(3-chloro-2-fluorophenyl)-2′-(2,2-dimethylpropyl)-N-{4-[(1R)-1-{2-[2-(2,6-dioxopiperidin-3-yl)-1-oxo-3H-isoindol-4-yl]ethynyl}-6-azaspiro[2.5]octane-6-carbonyl]-2-methoxyphenyl}-1,2-dihydrospiro[indole-3,3′-pyrrolidine]-5′-carboxamide]
11 | 2.67 nM | 127 nM | COc1cc(C(=O)N2CCCC[C@H]2CCC#Cc2cccc3c2CN([C@H]2CCC(=O)NC2=O)C3=O)ccc1NC(=O)[C@@H]1N[C@@H](CC(C)(C)C)[C@@]2(CNc3cc(Cl)ccc32)[C@H]1c1cccc(Cl)c1F [Example 39, (2′S,3S,4′S,5′R)-6-chloro-4′-(3-chloro-2-fluorophenyl)-2′-(2,2-dimethylpropyl)-N-{4-[(2S)-2-(4-{2-[(3S)-2,6-dioxopiperidin-3-yl]-1-oxo-3H-isoindol-4-yl}but-3-yn-1-yl)piperidine-1-carbonyl]-2-methoxyphenyl}-1,2-dihydrospiro[indole-3,3′-pyrrolidine]-5′-carboxamide]
12 | 2.03 nM | 35.4 nM | COc1cc(C(=O)N2CCCC[C@@H]2CCC#Cc2cccc3c2CN([C@@H]2CCC(=O)NC2=O)C3=O)ccc1NC(=O)[C@@H]1N[C@@H](CC(C)(C)C)[C@@]2(CNc3cc(Cl)ccc32)[C@H]1c1cccc(Cl)c1F [Example 36, (2′S,3S,4′S,5′R)-6-chloro-4′-(3-chloro-2-fluorophenyl)-2′-(2,2-dimethylpropyl)-N-{4-[(2R)-2-(4-{2-[(3R)-2,6-dioxopiperidin-3-yl]-1-oxo-3H-isoindol-4-yl}but-3-yn-1-yl)piperidine-1-carbonyl]-2-methoxyphenyl}-1,2-dihydrospiro[indole-3,3′-pyrrolidine]-5′-carboxamide]
13 | 2 nM | 122 nM | COc1cc(C(=O)N[C@@H]2CCC[C@@H](C#Cc3cccc4c3CN(C3CCC(=O)NC3=O)C4=O)C2)ccc1NC(=O)[C@@H]1N[C@@H](CC(C)(C)C)[C@@]2(CNc3cc(Cl)ccc32)[C@H]1c1cccc(Cl)c1F (stereo partly drawn) [Example 34, (2′S,3S,4′S,5′R)-6-chloro-4′-(3-chloro-2-fluorophenyl)-2′-(2,2-dimethylpropyl)-N-(4-{[(1R,3R)-3-{2-[2-(2,6-dioxopiperidin-3-yl)-1-oxo-3H-isoindol-4-yl]ethynyl}cyclohexyl]carbamoyl}-2-methoxyphenyl)-1,2-dihydrospiro[indole-3,3′-pyrrolidine]-5′-carboxamide]
14 | 1.95 nM | 34.4 nM | COc1cc(C(=O)N2CCCC[C@@H]2CCC#Cc2cccc3c2CN([C@H]2CCC(=O)NC2=O)C3=O)ccc1NC(=O)[C@@H]1N[C@@H](CC(C)(C)C)[C@@]2(CNc3cc(Cl)ccc32)[C@H]1c1cccc(Cl)c1F [Example 37, (2′S,3S,4′S,5′R)-6-chloro-4′-(3-chloro-2-fluorophenyl)-2′-(2,2-dimethylpropyl)-N-{4-[(2R)-2-(4-{2-[(3S)-2,6-dioxopiperidin-3-yl]-1-oxo-3H-isoindol-4-yl}but-3-yn-1-yl)piperidine-1-carbonyl]-2-methoxyphenyl}-1,2-dihydrospiro[indole-3,3′-pyrrolidine]-5′-carboxamide]
